Entries after “also recorded” stand apart in the source; their conditions may differ.
Assays:
TRPM5 channel = molecular target: T1, TRPM5 channel (Homo sapiens, UniProt Q9NZQ8); settings: Grand T, et al. 2008; cited from earlier work
T1 sequence (Q9NZQ8 1-1165): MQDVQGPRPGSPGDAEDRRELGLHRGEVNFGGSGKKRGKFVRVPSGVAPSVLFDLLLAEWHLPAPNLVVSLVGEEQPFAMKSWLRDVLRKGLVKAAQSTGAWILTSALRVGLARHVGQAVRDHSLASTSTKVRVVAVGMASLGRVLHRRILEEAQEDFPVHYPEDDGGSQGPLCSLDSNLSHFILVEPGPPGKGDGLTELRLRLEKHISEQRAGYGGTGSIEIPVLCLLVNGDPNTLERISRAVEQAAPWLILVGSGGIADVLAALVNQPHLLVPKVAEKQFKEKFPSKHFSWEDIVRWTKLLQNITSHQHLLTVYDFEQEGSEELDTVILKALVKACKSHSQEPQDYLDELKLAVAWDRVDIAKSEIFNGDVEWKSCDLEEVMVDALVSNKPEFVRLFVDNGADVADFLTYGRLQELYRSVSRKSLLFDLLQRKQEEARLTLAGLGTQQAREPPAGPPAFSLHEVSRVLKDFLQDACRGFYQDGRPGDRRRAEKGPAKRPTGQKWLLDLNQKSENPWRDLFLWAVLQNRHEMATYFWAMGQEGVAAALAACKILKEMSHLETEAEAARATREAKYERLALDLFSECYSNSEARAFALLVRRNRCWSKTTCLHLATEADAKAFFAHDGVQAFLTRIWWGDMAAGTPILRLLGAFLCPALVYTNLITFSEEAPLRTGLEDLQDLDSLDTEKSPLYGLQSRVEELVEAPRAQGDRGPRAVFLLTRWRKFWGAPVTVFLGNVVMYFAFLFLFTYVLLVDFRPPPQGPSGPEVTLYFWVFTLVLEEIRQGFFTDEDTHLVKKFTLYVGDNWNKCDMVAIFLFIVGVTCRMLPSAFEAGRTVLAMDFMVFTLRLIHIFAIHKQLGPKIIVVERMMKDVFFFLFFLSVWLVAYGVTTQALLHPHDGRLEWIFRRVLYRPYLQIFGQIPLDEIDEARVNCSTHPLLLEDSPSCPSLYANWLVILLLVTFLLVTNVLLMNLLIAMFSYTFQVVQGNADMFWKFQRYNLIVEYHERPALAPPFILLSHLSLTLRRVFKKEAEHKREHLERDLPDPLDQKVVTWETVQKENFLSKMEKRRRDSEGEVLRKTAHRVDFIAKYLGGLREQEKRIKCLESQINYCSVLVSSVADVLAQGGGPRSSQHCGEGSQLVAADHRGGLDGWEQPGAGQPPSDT

HUVECs [1] = assay: HUVEC cell death after oxygen/glucose deprivation (cell count, MTT); type: cell-based, human; settings: 5 μM
Method: (§1) HUVECs (Lonza, Wokingham, UK) were cultured at 37° C. with 5% CO2. The culture medium is endothelial growth medium-2 (EGM-2) consisting of endothelial basal medium (EBM), supplemented with 2% fetal bovine serum, hydrocortisone, hFGF, VEGF, R3-IGF-1, ascorbic acid, HEGF, GA-1000, and heparin (Lonza, Wokingham, UK). Cells at passage 6-10 were used for experiments. HUVECs were subjected to oxygen/glucose deprivation (OGD). To achieve supplement deprivation, EGM-2 was changed to EBM without fetal bovine serum or growth supplements. Hypoxia was induced by culturing the cells in a hypoxic chamber (Stem Cell Technologies, Vancouver, Canada) with 1% O2 and 5% CO2 at 37° C. for 24 hours.

HUVECs [2] = assay: HUVEC cell number count after different doses of 9-phenanthrol; type: cell-based, human
Method: as §1
To test the functional impact of TRPM4 on HUVECs, the cells were incubated with the TRPM4-specific blocker 9-phenanthrol. […] A study was performed in which 9-phenantrol with the concentration ranged from 0.1 μM to 30 μM was added to HUVECs. […] Thus, 5 μM 9-phenanthrol was used to treat HUVECs.

HUVECs [3] = assay: Tube formation of HUVECs on Matrigel after OGD; type: cell-based, human; settings: 5 μM
Method: as §1
HUVECs were divided into the following groups: Normoxia; Normoxia+5 μM 9-phenanthrol (Sigma); Hypoxia; and Hypoxia+5 μM 9-phenanthrol. A 24-well culture plate was precoated with 250 μl of growth factor-reduced Matrigel (Sigma, USA) at 37° C. for 30 minutes. 24 hours after OGD, 4×10^4 cells (in 300 μl of EGM-2) from each group were seeded onto the Matrigel-coated plates. The formation of capillary structures was examined under a light microscope after 4 hours. This study was replicated more than 4 times.

TRPM4 homomers = TRPM4 homomers (Homo sapiens, UniProt Q8TD43); settings: Sala-Rabanal M, et al. 2012; cited from earlier work
Chain of TRPM4 homomers (Q8TD43 whole entry): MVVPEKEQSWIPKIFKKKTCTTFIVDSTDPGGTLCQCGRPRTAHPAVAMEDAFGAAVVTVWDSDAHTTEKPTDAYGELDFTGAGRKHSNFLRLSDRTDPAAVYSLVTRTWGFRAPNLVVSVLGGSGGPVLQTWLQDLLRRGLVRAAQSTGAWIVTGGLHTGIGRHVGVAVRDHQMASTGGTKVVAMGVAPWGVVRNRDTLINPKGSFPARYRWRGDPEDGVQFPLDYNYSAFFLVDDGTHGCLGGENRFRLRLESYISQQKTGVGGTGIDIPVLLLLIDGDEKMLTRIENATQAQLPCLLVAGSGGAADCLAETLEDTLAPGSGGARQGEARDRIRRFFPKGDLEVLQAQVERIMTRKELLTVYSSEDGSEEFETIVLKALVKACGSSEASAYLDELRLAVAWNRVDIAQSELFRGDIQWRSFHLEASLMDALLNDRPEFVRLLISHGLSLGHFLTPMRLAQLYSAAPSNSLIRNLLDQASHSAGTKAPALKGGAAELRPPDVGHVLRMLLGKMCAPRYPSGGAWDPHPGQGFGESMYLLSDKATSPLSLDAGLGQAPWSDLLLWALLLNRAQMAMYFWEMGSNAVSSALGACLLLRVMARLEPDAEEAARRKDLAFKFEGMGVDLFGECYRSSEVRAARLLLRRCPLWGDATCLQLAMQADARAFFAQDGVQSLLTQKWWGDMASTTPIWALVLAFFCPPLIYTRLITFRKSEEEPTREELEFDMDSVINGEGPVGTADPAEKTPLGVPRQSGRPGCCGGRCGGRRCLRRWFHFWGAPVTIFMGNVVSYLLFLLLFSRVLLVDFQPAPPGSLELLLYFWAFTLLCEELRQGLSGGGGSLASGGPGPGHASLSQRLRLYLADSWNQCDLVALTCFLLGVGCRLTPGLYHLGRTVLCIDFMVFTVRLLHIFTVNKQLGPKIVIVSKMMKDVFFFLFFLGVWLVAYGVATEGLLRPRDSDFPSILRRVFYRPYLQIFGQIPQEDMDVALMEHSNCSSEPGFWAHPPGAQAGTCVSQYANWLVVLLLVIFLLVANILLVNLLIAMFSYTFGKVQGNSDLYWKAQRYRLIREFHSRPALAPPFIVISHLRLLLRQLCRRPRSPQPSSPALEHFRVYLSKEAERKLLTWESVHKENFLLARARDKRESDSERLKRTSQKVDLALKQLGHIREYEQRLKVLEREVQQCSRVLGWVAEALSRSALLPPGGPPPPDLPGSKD

SMILES | effect on TRPM5 channel (TRPM5 channel) | cell death after OGD (HUVECs [1]; 24 hours OGD) | MTT assay cell viability (HUVECs [1]; vs control cells) | HUVEC cell number count (HUVECs [1]; vs control cells, normoxia and hypoxia 24 hours) | cell death (HUVECs [2]; 10 μM 9-phenanthrol in culture medium) | cell survival (HUVECs [2]; 30 μM 9-phenanthrol) | cell death (HUVECs [2]; 9-phenanthrol between 0.1 μM and 5 μM) | tube formation (tube branches) on Matrigel (HUVECs [3]) | sensitivity of TRPM4 homomers (TRPM4 homomers)
Oc1cc2ccccc2c2ccccc12 [9-phenanthrol] | does not affect | did not reduce cell death | no difference | no difference | Cell death became prominent | Very few cells survived | No difference | large enhancement; also recorded: significantly increased | –
COc1ccc(Cl)cc1C(=O)NCCc1ccc(S(=O)(=O)NC(=O)NC2CCCCC2)cc1 [glibenclamide] | – | – | – | – | – | – | – | – | not sensitive
